Results reported in EP0000190A1, “Solutions with a local anesthetic effect” (Dr. Karl Thomae GmbH, priority 1977, dated 1979).

Tests used:
[1] = system: Cornea; test: Local anaesthetic effect (touch stimulus) and corneal epithelium status after eye drops in rabbits, versus Kerakain; type: in vivo; details: Kaninchen
Source text: Die überlegene kurzfristige lokalanästhetische Wirkung der neuen Lösungen wurde im Vergleich zu Proxymetacain (0,5%ige 2-Diäthyl-aminoäthyl-3-amino-4-propoxybenzoesäure-hydrochlorid-Lösung = Chibro® -Kerakain) am Kaninchen wie folgt geprüft: • Den Versuchstieren, die nach Spaltlampen-Untersuchung keine Schädigung des Cornea-Epithels zeigten und klinisch keine konjunktivale Entzündung aufwiesen, wurden jeweils 2 Tropfen der entsprechenden Augentropfen appliziert. Die Sensibilität der zentralen Cornea ist eine Minute nach Applikation durch Berührungsreiz, das gesamte Hornhautepithel und die Sensibilität 5, 10, 15 und 30 Minuten nach Applikation beurteilt worden. Der Untersuchen. der die Sensibilität und den Hornhaut-Epithel-Status beurteilte, war hierbei nicht darüber informiert, welches Auge jeden Tieres mit Chibro® -Kerakain behandelt war.
Die nachfolgende Tabelle enthält die aufgefundenen Versuchsergebnisse: […]

[2] = system: Mund- bzw. Rachenschleimhaut; test: Local anaesthesia of human mouth and throat mucosa after spray from a metering pump valve; type: in vivo, Mensch; details: 2%ige NA 872-Lösung, 3-8 Hübe des Pump-Dosier-Ventils, Mund- bzw. Rachenschleimhaut des Menschen, 6 Probanden
Source text: Die oben aufgezeigte Wirkung konnte unter Heranziehung des Aesthe-siometers nach Cochet und Bonnet am menschlichen Auge mit Tropf- bzw. bei der Anwendung als Spray-Applikation mit Hilfe des Pump-Dosier-Ventils an der Mund- bzw. Rachenschleimhaut bestätigt werden. Bei einer Konzentration von 0,5 bis 1 % NA 872 und der Appli kation von 1 bis 2 Tropfen pro Auge tritt die lokalanästhetische Wirkung innerhalb von 30 bis 60 Sekunden ein, die Wirkungsdauer betrug 15 bis 30 Minuten, bzw. bei der Applikation einer 2%igen NA 872-Lösung mittels 3-8 Hüben des Pump-Dosier-Ventils an der Mund- bzw.

[3] = Acute toxicity; details: mouse, in vivo, po, Maus, als Hydrochlorid
[4] = 0,5 % NA 872, 2 Tropfen, 5 Minuten nach Applikation
[5] = 1,0 % NA 872, 2 Tropfen, 5 Minuten nach Applikation
[6] = 1,0 % NA 872, 2 Tropfen, 10 Minuten nach Applikation
[7] = 1,0 % NA 872, 2 Tropfen, 15 Minuten nach Applikation
[8] = 2,0 % NA 872, 2 Tropfen, 5 Minuten nach Applikation
[9] = 2,0 % NA 872, 2 Tropfen, 10 Minuten nach Applikation
[10] = Augentropfen, conclusion from the table

## Nc1c(Br)cc(Br)cc1CN[C@H]1CC[C@H](O)CC1 [NA 872, 2-Amino-3,5-dibrom-N-(trans-4-hydroxycyclohexyl)-benzylamin]
[1]; 0,5 % NA 872, 2 Tropfen, 1 Minute nach Applikation
  Erhobener Anästhesie-Befund (A): ++
[1]; [4]
  Erhobener Anästhesie-Befund (A): +
  Hornhaut-Befund (HH): o.B.
[1]; 0,5 % NA 872, 2 Tropfen, 10 Minuten nach Applikation
  Hornhaut-Befund (HH): o.B.
[1]; 0,5 % NA 872, 2 Tropfen, 15 Minuten nach Applikation
  Hornhaut-Befund (HH): o.B.
[1]; 0,5 % NA 872, 2 Tropfen, 30 Minuten nach Applikation
  Hornhaut-Befund (HH): o.B.
[1]; 1,0 % NA 872, 2 Tropfen, 1 Minute nach Applikation
  Erhobener Anästhesie-Befund (A): ++
[1]; [5]
  Erhobener Anästhesie-Befund (A): +
  Hornhaut-Befund (HH): o.B.
[1]; [6]
  Erhobener Anästhesie-Befund (A): +
  Hornhaut-Befund (HH): o.B.
[1]; [7]
  Erhobener Anästhesie-Befund (A): (+)
  Hornhaut-Befund (HH): o.B.
[1]; 1,0 % NA 872, 2 Tropfen, 30 Minuten nach Applikation
  Hornhaut-Befund (HH): o.B.
[1]; 2,0 % NA 872, 2 Tropfen, 1 Minute nach Applikation
  Erhobener Anästhesie-Befund (A): ++
[1]; [8]
  Erhobener Anästhesie-Befund (A): ++
  Hornhaut-Befund (HH): o.B.
[1]; [9]
  Erhobener Anästhesie-Befund (A): +
  Hornhaut-Befund (HH): o.B.
[1]; 2,0 % NA 872, 2 Tropfen, 15 Minuten nach Applikation
  Hornhaut-Befund (HH): o.B.
[1]; 2,0 % NA 872, 2 Tropfen, 30 Minuten nach Applikation
  Hornhaut-Befund (HH): o.B.
[1]; [10]
  Nebenwirkung auf das Epithel im Vergleich zur Vergleichslösung: geringere Nebenwirkung auf das Epithel
  lokalanästhetische Wirkung im Vergleich zur Vergleichslösung: kürzere lokalanästhetische Wirkung als die Vergleichslösung
[2]
  Anästhesie: leichte Anästhesie
[3]
  LD50: 2720 mg/kg
